The target in one assay is T1, KDR (VEGFR2) (Homo sapiens, UniProt P35968).
T1 construct: phosphorylation of KDR expressed in human umbilical vein endothelial cells (HUVECs); host or cells: HUVECs
In words: Test (c) in vitro phospho-KDR ELISA assay in HUVECs. In kind it is cell-based. The settings on record: HUVECs stimulated with VEGF, read-out: IC50 versus phospho-tyrosine formation in KDR. As to the method:
(c) In Vitro Phospho-KDR ELISA Assay
This assay uses a conventional ELISA method to determine the ability of test compounds to inhibit phosphorylation of tyrosine in KDR (VEGFR2).
The cells were incubated overnight at 37° C. with 7.5% CO2 to allow adherence to the well surface. […] The plates were incubated at 37° C. for 2.5 hours.
Test compounds were prepared as 10 mM stock solutions in DMSO and serially diluted with DMSO as required. Aliquots (3 μl) of each concentration of test compound were diluted with ‘serum fiee medium’ (300 μl). Aliquots (50 μl) of each resultant compound concentration were added to the cells in each well. […] The cells were incubated for 90 minutes at 37° C. with 7.5% CO2.
The resultant cells were stimulated with VEGF using the following procedure. A lyopliilised powder of VEGF (Sigma-Aldrich; Catalogue No. V7259) was mixed with PBS containing 0.1% filter-sterilised BSA (0.1% BSA/PBS) to provide a stock solution of 10 μg/ml of VEGF. A dilution of this stock solution into ‘serum free medium’ provided a 1000 ng/ml VEGF solution. Aliquots thereof (50 μl) were added to all wells. The cells were incubated at 37° C. with 7.5% CO2 for 5 minutes. […] The resultant tissue culture plates were shaken for 5 minutes at ambient temperature to ensure full lysis before being frozen on dry-ice and stored at −20° C. until required.
The antibody was diluted in PBS to a concentration of 8 μg/ml, aliquots (100 μl) were added to each well and the plates were stored at ambient temperature for 16 hours. The wells were washed 3 times (1 minute soak each time) with 300 μl per well of PBST. The wells were treated with PBS containing 1% filter-sterilised BSA (1% BSA/PBS; 200 μl) at ambient temperature for 1 hour and subsequently washed 3 times with 300 μl per well of PBST.
The tissue culture plates with frozen cell lysate were allowed to warm to 0° C. Aliquots (100 μl) of the HUVEC cell lysate were added and the ELISA plates were agitated at ambient temperature for 3 hours. The wells were washed 3 times with 300 μl per well of PBST. […] Aliquots (100 μl) of the resultant dilution were added to each well and the plates were agitated at ambient temperature for 2 hours. The plates were washed 4 times with 300 μl per well of PBST. […] Aliquots (50 μl) of chemiluminescent substrate solution were added to each of the wells, the plates were agitated for 2 minutes and luminescence was read on a SpectraFluor is Plus plate reader (Tecan UK Ltd.). The resultant data were analysed to determine the IC50 value of each test compound.
A general note: ELISA stands for enzyme-linked immunosorbent assay.

In a further assay the target is T2, PDGFRβ (Homo sapiens, UniProt P09619).
T2 construct: endogenous in cells; host or cells: MG63 osteosarcoma cells (ATCC)
The experiment in a line: Test (b) in vitro phospho-Tyr751 PDGFRβ ELISA assay in MG63 osteosarcoma cells. The format is cell-based. Particulars: MG63 osteosarcoma cells stimulated with PDGFBB, read-out: IC50 versus phospho-Tyr751 formation in PDGFRβ. As to the method: (b) In Vitro Phospho-Tyr751 PDGFRβ ELISA Assay
This assay uses a conventional ELISA method to determine the ability of test compounds to inhibit phosphorylation of tyrosine in PDGFRβ.
Aliquots (100 μl) of culture media were placed in the outer wells to minimise edge effects. The cells were incubated overnight at 37° C. with 7.5% CO2 to allow the cells to adhere to the wells.
Aliquots (3 μl) of each compound concentration were added to test medium (300 μl) to create a second dilution range. Aliquots (16 μl) of each resultant compound concentration were added to the cells in each well. “Maximum” control cells received a dilution of DMSO plus test medium only. “Minimum” control cells received a reference PDGFR inhibitor (16 μl). The cells were incubated for 90 minutes at 37° C. with 7.5% CO2.
The resultant cells were stimulated with PDGFBB using the following procedure. A lyophilised powder of PDGFBB, (Sigma-Aldrich; Catalogue No. P4306) was mixed with sterile water to provide a stock solution of 10 μg/ml of PDGFBB. […] Aliquots thereof (44 μl) were added to compound treated cells and to the “Maximum” control cells. The “Minimum” control cells received medium only. The cells were incubated at 37° C. with 7.5% CO2 for 5 minutes. […] The resultant tissue culture plates were shaken for 5 minutes at ambient temperature to ensure full lysis and then frozen at −20° C. until required.
Aliquots (50 μl) were added to each well and the plates were placed at 4° C. for 16 hours. The wells were washed 5 times (1 minute soak each time) with 300 μl per well of PBST. The wells were treated with 50 μl of 3% BSA in PBST at ambient temperature for 1 hour and subsequently washed twice with 300 μl per well of PBST.
The tissue culture plates with frozen cell lysate were allowed to warm to 0° C. Aliquots (50 μl) of the MG63 cell lysate were added to the ELISA plates. Each sample was duplicated on separate plates. The ELISA plates were agitated at ambient temperature for 2 hours. The wells were washed twice with 300 μl per well of PBST. […] Aliquots (50 μl) of the antibody solutions were added to each of the wells. The plates were agitated at ambient temperature for 1 hour. The plates were washed twice with 300 μl per well of PBST. […] Aliquots (50 μl) of the resultant dilution were added to each well and the plates were agitated at ambient temperature for 1 hour. The plates were washed 5 times with 300 μl per well of PBST. […] Aliquots (50 μl) of chemiluminescent substrate solution were added to each of the wells, the plates were agitated for 2 minutes and luminescence was read on a SpectraFluor Plus plate reader (Tecan UK Ltd., Reading, Berkshire, UK). Analysis for each of the compounds was completed by determining a ratio of the ‘phospho antibody’ plate reading to the ‘total antibody’ plate reading for each test sample and these ratios were plotted to determine the IC50 value of each test compound.

In assay [1] the test system is dermatofibrosarcoma protruberans cell cultures. Particulars: Cancer Research 2001; cited from earlier work.
The test system of assay [2] is human glioblastoma lines U343 and U87. The settings on record: U343 and U87 injected into the brains of nude mice; Cancer Research 2000; cited from earlier work.
The next assay concerns PDGF receptor kinase. The settings on record: literature (Nature Reviews 2002; Cancer Research 1996); cited from earlier work.

Some results are limits rather than exact numbers.

The values that follow come from patent publication US7973164B2, “Quinoline derivatives” (AstraZeneca AB, priority 2006, dated 2011).

The IC50 is the concentration at which inhibition is half-maximal.

T1 sequence (P35968 20-1356): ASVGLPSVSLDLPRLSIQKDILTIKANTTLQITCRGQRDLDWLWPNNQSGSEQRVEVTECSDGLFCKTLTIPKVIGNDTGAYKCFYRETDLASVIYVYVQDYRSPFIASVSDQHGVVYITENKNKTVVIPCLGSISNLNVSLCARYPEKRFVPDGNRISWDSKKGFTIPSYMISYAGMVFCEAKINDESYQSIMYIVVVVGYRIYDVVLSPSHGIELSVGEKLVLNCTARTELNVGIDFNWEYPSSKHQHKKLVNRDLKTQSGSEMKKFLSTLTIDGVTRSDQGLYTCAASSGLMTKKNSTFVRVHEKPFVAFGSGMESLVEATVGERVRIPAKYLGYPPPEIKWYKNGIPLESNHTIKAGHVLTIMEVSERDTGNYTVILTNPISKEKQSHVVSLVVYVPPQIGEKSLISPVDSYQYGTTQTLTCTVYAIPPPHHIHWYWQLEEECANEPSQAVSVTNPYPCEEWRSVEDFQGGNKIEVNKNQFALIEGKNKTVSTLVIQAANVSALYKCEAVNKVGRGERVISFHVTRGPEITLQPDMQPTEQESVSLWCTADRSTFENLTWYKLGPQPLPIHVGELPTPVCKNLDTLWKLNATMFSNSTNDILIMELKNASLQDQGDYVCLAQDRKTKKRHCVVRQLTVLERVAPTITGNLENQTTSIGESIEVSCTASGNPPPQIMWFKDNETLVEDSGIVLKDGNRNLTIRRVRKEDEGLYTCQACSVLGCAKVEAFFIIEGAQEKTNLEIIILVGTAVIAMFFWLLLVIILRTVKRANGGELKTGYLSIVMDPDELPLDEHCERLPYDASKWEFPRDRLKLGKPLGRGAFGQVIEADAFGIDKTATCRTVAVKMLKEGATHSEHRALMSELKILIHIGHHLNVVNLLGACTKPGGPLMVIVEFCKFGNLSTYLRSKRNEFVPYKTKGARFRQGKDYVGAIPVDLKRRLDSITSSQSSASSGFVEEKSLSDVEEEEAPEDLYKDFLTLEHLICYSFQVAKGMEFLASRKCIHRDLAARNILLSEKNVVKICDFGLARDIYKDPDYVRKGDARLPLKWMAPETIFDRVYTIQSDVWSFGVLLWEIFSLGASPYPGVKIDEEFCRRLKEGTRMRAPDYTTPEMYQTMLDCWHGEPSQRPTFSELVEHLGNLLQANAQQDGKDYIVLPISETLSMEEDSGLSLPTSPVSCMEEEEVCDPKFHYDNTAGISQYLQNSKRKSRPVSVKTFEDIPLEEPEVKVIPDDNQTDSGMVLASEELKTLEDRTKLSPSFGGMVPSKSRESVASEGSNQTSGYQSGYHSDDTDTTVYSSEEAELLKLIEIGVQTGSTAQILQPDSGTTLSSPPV
T2 sequence (P09619 33-1106): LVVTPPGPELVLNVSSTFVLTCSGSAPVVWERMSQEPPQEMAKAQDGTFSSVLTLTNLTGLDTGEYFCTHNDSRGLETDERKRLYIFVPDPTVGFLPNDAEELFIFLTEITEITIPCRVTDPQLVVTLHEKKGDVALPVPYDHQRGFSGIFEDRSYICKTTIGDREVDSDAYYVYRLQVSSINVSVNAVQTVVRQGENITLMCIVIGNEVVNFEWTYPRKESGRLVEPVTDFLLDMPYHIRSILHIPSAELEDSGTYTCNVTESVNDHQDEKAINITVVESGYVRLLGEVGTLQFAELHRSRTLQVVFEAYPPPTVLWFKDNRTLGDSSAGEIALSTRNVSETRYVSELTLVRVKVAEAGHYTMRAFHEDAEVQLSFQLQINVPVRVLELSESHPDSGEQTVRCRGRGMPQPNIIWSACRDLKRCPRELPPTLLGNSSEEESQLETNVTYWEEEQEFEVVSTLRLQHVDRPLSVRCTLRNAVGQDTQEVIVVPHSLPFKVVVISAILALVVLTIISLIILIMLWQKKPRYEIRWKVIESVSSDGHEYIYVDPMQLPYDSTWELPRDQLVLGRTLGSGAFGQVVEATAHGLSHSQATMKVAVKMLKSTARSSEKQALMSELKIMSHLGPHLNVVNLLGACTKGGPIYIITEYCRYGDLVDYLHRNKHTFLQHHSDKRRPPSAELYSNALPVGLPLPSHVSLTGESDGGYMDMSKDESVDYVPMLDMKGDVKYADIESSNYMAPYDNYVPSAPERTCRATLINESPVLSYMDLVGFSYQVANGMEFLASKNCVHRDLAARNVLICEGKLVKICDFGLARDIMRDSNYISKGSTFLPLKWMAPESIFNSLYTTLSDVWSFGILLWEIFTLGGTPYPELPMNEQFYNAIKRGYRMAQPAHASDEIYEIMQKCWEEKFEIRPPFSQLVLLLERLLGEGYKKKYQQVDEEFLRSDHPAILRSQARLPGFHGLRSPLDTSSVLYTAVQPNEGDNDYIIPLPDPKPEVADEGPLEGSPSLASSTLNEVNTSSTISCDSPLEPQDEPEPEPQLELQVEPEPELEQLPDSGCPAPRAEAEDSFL

Regarding `CCn1cc(NC(=O)Cc2ccc(Oc3ccnc4ccccc34)cc2OC)cn1` [N-(1-ethyl-1H-pyrazol-4-yl)-2-(2-methoxy-4-quinolin-4-yloxyphenyl)acetamide], the values for the IC50 on KDR (VEGFR2) and on PDGFRβ were greater than 1000 nM and roughly 20 nM, respectively.
The corresponding values for `CCc1c[nH]nc1NC(=O)Cc1ccc(Oc2ccnc3cc(OC)c(OC)cc23)cc1OC` [N-(4-ethyl-1H-pyrazol-3-yl)-2-[4-(6,7-dimethoxyquinolin-4-yloxy)-2-methoxyphenyl]acetamide] are greater than 2000 nM and roughly 5 nM.
With `CCn1cc(NC(=O)Cc2ccc(Oc3ccnc4cc(OC)c(C#N)cc34)cc2)cn1` [N-(1-ethyl-1H-pyrazol-4-yl)-2-[4-(6-cyano-7-methoxyquinolin-4-yloxy)phenyl]acetamide], the values for the half-inhibitory concentration (IC50) at KDR (VEGFR2) and on PDGFRβ were roughly 200 nM and roughly 2 nM, respectively.
In the case of `COc1cc(Oc2ccnc3ccc(F)cc23)ccc1CC(=O)Nc1n[nH]c(C)c1C` [N-(4,5-dimethyl-1H-pyrazol-3-yl)-2-[4-(6-fluoroquinolin-4-yloxy)-2-methoxyphenyl]acetamide], the IC50 is greater than 2000 nM at KDR (VEGFR2) and roughly 10 nM at PDGFRβ.
Turning to `COc1cc(Oc2ccnc3ccc(F)cc23)ccc1CC(=O)Nc1cc(C)[nH]n1` [N-(5-methyl-1H-pyrazol-3-yl)-2-[4-(6-fluoroquinolin-4-yloxy)-2-methoxyphenyl]acetamide], the half-maximal inhibitory concentration (IC50) on KDR (VEGFR2) was greater than 2000 nM; on PDGFRβ, roughly 10 nM.
The corresponding values for `CCn1cc(NC(=O)Cc2ccc(Oc3ccnc4cc(OC)c(C(=O)N(C)C)cc34)cc2)cn1` [N-(1-ethyl-1H-pyrazol-4-yl)-2-{4-[6-(N,N-dimethylcarbamoyl)-7-methoxyquinolin-4-yloxy]phenyl}acetamide] are roughly 700 nM and roughly 3 nM.
As to `CCn1cc(NC(=O)Cc2ccc(Oc3ccnc4cc(OC)c(C#N)cc34)cc2OC)cn1` [N-(1-ethyl-1H-pyrazol-4-yl)-2-[4-(6-cyano-7-methoxyquinolin-4-yloxy)-2-methoxyphenyl]acetamide], the IC50 on KDR (VEGFR2) was roughly 750 nM; at PDGFRβ, roughly 2 nM.
Consider `Cc1ccc(NC(=O)c2ccc(CN3CCN(C)CC3)cc2)cc1Nc1nccc(-c2cccnc2)n1` [imatinib], for which the “inhibition of in vivo growth of dermatofibrosarcoma protruberans cell cultures” value in assay [1] is given as “inhibits the in vivo growth of dermatofibrosarcoma protruberans cell cultures”. Also, in assay [2], the “inhibition of growth of glioblastoma tumours” value is given as “inhibits the growth of glioblastoma tumours”. In the assay with PDGF receptor kinase, the “inhibition of PDGF receptor kinase activity” value was “shown to inhibit PDGF receptor kinase activity”.
With `CNC(=O)c1cc2c(Oc3ccc(CC(=O)Nc4noc(C)c4C)c(OC)c3)ccnc2cc1OC` [N-(4,5-dimethylisoxazol-3-yl)-2-{2-methoxy-4-[7-methoxy-6-(N-methylcarbamoyl)quinolin-4-yloxy]phenyl}acetamide], the IC50 is roughly 1000 nM at KDR (VEGFR2) and roughly 5 nM at PDGFRβ.
